The compounds below were run against T1, human PAH with the R408W mutation (Homo sapiens, UniProt P00439, R408W) (assay: Cell Based Phenylalanine Flux Assay). Settings: A375 cells expressing R408W PAH; 24 hrs with compound, then 20 µM sepiapterin and 800 µM 13C9,15N-Phenylalanine for 4 hours; 13C-Tyrosine by LC-MS; average where tested multiple times; read-out: AC50.
T1 construct: expressed in transfected cells
T1 sequence (P00439 1-452 R408W): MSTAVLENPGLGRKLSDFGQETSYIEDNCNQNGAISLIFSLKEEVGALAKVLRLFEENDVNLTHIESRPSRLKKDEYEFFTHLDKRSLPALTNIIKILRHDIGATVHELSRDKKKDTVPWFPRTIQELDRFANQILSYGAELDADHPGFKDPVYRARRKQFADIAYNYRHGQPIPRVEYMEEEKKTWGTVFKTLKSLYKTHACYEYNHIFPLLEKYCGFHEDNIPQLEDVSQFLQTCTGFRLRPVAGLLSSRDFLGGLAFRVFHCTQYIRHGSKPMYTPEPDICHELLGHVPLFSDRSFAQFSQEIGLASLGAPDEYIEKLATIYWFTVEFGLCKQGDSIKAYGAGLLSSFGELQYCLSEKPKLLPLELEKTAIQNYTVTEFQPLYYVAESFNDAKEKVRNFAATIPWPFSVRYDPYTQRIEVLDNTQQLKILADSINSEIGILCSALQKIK
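Also: after compound treatment, cells received sepiapterin plus isotope-labelled Phenylalanine for 4 hours, then labelled Tyrosine in the medium was quantified, 10-point 2-fold dilution series run in duplicate.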

SMILES | AC50 [µM]
CC(C)(F)c1nnc(C(=O)N2CCc3[nH]cnc3C2c2cc3ccccn3n2)o1 (stereo not shown) [listing 1 of 2 here] | 1 to 5
Cc1cccc2cc(C3c4nc[nH]c4CCN3c3nnc(-c4cnccn4)o3)nn12 (stereo not shown) [listing 1 of 2 here] | > 5
O=C(c1cnc(-c2cnccn2)o1)N1CCc2[nH]cnc2C1c1cc2ccccn2n1 (stereo not shown) | > 5
O=C(c1cnc(-c2ccccn2)o1)N1CCc2[nH]cnc2C1c1cc2ccccn2n1 (stereo not shown) [listing 1 of 2 here] | > 5
Fc1ncccc1-c1nnc(N2CCc3[nH]cnc3C2c2cc3ccccn3n2)o1 (stereo not shown) [listing 1 of 2 here] | > 5
Cc1nnc(C(=O)N2CCc3[nH]cnc3C2c2cc3ccccn3n2)o1 (stereo not shown) [listing 1 of 2 here] | > 5
Fc1ncccc1-c1nnc(N2CCc3[nH]cnc3C2c2cc3c(C(F)F)cccn3n2)o1 (stereo not shown) [listing 1 of 2 here] | > 5
Cc1ncccc1-c1nnc(N2CCc3[nH]cnc3C2c2cc3c(C4CC4)cccn3n2)o1 (stereo not shown) | 1 to 5
c1cncc(-c2nnc(N3CCc4[nH]cnc4C3c3cc4c(C5CC5)cccn4n3)o2)c1 (stereo not shown) [listing 1 of 2 here] | > 5
O=C(c1cn[nH]c1Cl)N1CCc2[nH]cnc2C1c1cc2ccccn2n1 (stereo not shown) [listing 1 of 2 here] | 1 to 5
Cc1cccn2nc(C3c4nc[nH]c4CCN3C(=O)c3ccnn3C(F)F)cc12 (stereo not shown) | 1 to 5
Cn1ccc(C(=O)N2CCc3[nH]cnc3C2c2cc3ccccn3n2)n1 (stereo not shown) | > 5
Cc1cccn2nc(C3c4nc[nH]c4CCN3c3cnn(C)c3)cc12 (stereo not shown) | 1 to 5
Cn1nc(N)cc1C(=O)N1CCc2[nH]cnc2C1c1cc2ccccn2n1 (stereo not shown) | > 5
O=C(c1nnc(-c2cnn(CC(F)F)c2)o1)N1CCc2[nH]cnc2C1c1cc2ccccn2n1 (stereo not shown) | 1 to 5
Cc1cccn2nc(C3c4nc[nH]c4CCN3C(=O)c3nnc(-c4cncn4C)o3)cc12 (stereo not shown) | 1 to 5
Cc1c(C2c3nc[nH]c3CCN2C(=O)c2nnc(-c3cnn(C)c3)o2)nn2ccccc12 (stereo not shown) | 1 to 5
CC(C)c1cccn2nc(C3c4nc[nH]c4CCN3c3nnc(C(C)(C)F)o3)cc12 (stereo not shown) | 1 to 5
CC(C)(F)c1nnc(N2CCc3[nH]cnc3C2c2cc3c(F)cccn3n2)o1 (stereo not shown) | 1 to 5
CC(C)(F)c1nnc(C(=O)N2CCc3[nH]cnc3C2c2cc3ccccn3n2)o1 (stereo not shown) [listing 2 of 2 here] | 1 to 5
CC(C)(O)c1cc(C(=O)N2CCc3[nH]cnc3C2c2cc3ccccn3n2)no1 (stereo not shown) | > 5

SMILES | AC50 [µM]
CC(C)(O)c1nc(C(=O)N2CCc3[nH]cnc3C2c2cc3ccccn3n2)no1 (stereo not shown) | > 5
Cc1n[nH]cc1-c1nnc(C(=O)N2CCc3[nH]cnc3C2c2cc3c(C)cccn3n2)o1 (stereo not shown) | 1 to 5
FC(F)c1cccn2nc(C3c4nc[nH]c4CCN3c3nnc(C4CC(F)(F)C4)o3)cc12 (stereo not shown) | 1 to 5
Fc1cccn2nc(C3c4nc[nH]c4CCN3c3nnc(C4CC(F)(F)C4)o3)cc12 (stereo not shown) | 1 to 5
FC1(F)CC(c2nnc(N3CCc4[nH]cnc4C3c3cc4c(C(F)(F)F)cccn4n3)o2)C1 (stereo not shown) | 1 to 5
FC1(F)CC(c2nnc(N3CCc4[nH]cnc4C3c3cc4c(Cl)cccn4n3)o2)C1 (stereo not shown) | 1 to 5
CC(C)c1nnc(N2CCc3[nH]cnc3C2c2cc3c(C4CC4)cccn3n2)o1 (stereo not shown) | > 5
CC(C)(F)c1nnc(N2CCc3[nH]cnc3C2c2cc3c(C4CC4)cccn3n2)o1 (stereo not shown) | > 5
FC1(F)CC(c2nnc(N3CCc4[nH]cnc4C3c3cc4c(C5CC5)cccn4n3)o2)C1 (stereo not shown) | 1 to 5
Cc1n[nH]cc1-c1nnc(C(=O)N2CCc3[nH]cnc3C2c2cc3c(F)cccn3n2)o1 (stereo not shown) | 1 to 5
Cn1cncc1-c1nnc(C(=O)N2CCc3[nH]cnc3C2c2cc3c(F)cccn3n2)o1 (stereo not shown) | 1 to 5
Cc1c(C2c3nc[nH]c3CCN2C(=O)c2nnc(-c3ccccn3)o2)nn2ccccc12 (stereo not shown) | 1 to 5
Fc1cccnc1-c1nnc(N2CCc3[nH]cnc3C2c2cc3c(C(F)F)cccn3n2)o1 (stereo not shown) | 1 to 5
FC(F)c1cccn2nc(C3c4nc[nH]c4CCN3c3nnc(-c4ncccn4)o3)cc12 (stereo not shown) | 1 to 5
Fc1cccnc1-c1nnc(N2CCc3[nH]cnc3C2c2cc3c(C4CC4)cccn3n2)o1 (stereo not shown) [listing 2 of 2 here] | 1 to 5
c1cnc(-c2nnc(N3CCc4[nH]cnc4C3c3cc4c(C5CC5)cccn4n3)o2)nc1 (stereo not shown) | 1 to 5
Fc1cccn2nc(C3c4nc[nH]c4CCN3c3nnc(-c4ncccn4)o3)cc12 (stereo not shown) | 1 to 5
FC(F)(F)c1cccc2cc(C3c4nc[nH]c4CCN3c3nnc(-c4cnccn4)o3)nn12 (stereo not shown) | 1 to 5
Cc1cccc2cc(C3c4nc[nH]c4CCN3c3nnc(-c4cnccn4)o3)nn12 (stereo not shown) [listing 2 of 2 here] | 1 to 5
O=C(c1cnc(-c2ccccn2)o1)N1CCc2[nH]cnc2C1c1cc2ccccn2n1 (stereo not shown) [listing 2 of 2 here] | 1 to 5
CC(C)(O)c1cc(C(=O)N2CCc3[nH]cnc3C2c2cc3ccccn3n2)on1 (stereo not shown) | 1 to 5

SMILES | AC50 [µM]
O=C(c1cnn(-c2ccccn2)c1Cl)N1CCc2[nH]cnc2C1c1cc2ccccn2n1 (stereo not shown) | 1 to 5
Fc1ncccc1-c1nnc(N2CCc3[nH]cnc3C2c2cc3ccccn3n2)o1 (stereo not shown) [listing 2 of 2 here] | 1 to 5
Fc1cccc(-c2nnc(N3CCc4[nH]cnc4C3c3cc4ccccn4n3)o2)n1 (stereo not shown) | 1 to 5
Cc1ncccc1-c1nnc(N2CCc3[nH]cnc3C2c2cc3ccccn3n2)o1 (stereo not shown) | 1 to 5
Cc1nnc(C(=O)N2CCc3[nH]cnc3C2c2cc3ccccn3n2)o1 (stereo not shown) [listing 2 of 2 here] | 1 to 5
O=C(C1CN(CC(F)(F)F)C1)N1CCc2[nH]cnc2C1c1cc2ccccn2n1 (stereo not shown) | > 5
FC(F)c1cccn2nc(C3c4nc[nH]c4CCN3c3nnc(-c4cccnc4)o3)cc12 (stereo not shown) | 1 to 5
c1cncc(-c2nnc(N3CCc4[nH]cnc4C3c3cc4c(C5CC5)cccn4n3)o2)c1 (stereo not shown) [listing 2 of 2 here] | 1 to 5
c1cnnc(-c2nnc(N3CCc4[nH]cnc4C3c3cc4c(C5CC5)cccn4n3)o2)c1 (stereo not shown) | 1 to 5
Fc1ncccc1-c1nnc(N2CCc3[nH]cnc3C2c2cc3c(C4CC4)cccn3n2)o1 (stereo not shown) [listing 2 of 2 here] | 1 to 5
Cn1cc(N2CCc3[nH]cnc3C2c2cc3c(F)cccn3n2)cn1 (stereo not shown) | 1 to 5
Cc1ccc2cc(C3c4nc[nH]c4CCN3C(=O)c3ocnc3C(F)F)nn2c1 (stereo not shown) | 1 to 5
CCn1cnnc1C(=O)N1CCc2[nH]cnc2C1c1cc2ccccn2n1 (stereo not shown) | 1 to 5
O=C(c1ocnc1C(F)F)N1CCc2[nH]cnc2C1c1cc2c(Cl)cccn2n1 (stereo not shown) | 1 to 5
O=C(c1ccn[nH]1)N1CCc2[nH]cnc2C1c1cc2ccccn2n1 (stereo not shown) | > 5
O=C(c1cnco1)N1CCc2[nH]cnc2C1c1cc2ccccn2n1 (stereo not shown) | 1 to 5
O=C(c1cn[nH]c1Cl)N1CCc2[nH]cnc2C1c1cc2ccccn2n1 (stereo not shown) [listing 2 of 2 here] | 1 to 5
CC(O)c1nc(C(F)F)c(C(=O)N2CCc3[nH]cnc3C2c2cc3c(Cl)cccn3n2)o1 (stereo not shown) | 1 to 5
Cc1nc(C(C)O)oc1C(=O)N1CCc2[nH]cnc2C1c1cc2c(F)cccn2n1 (stereo not shown) | 1 to 5

Second part, the compound after the results:

AC50 [µM] | SMILES
> 5 | Cc1c(C2c3nc[nH]c3CCN2C(=O)c2nnc(-c3ccn(C)n3)o2)nn2ccccc12 (stereo not shown) [listing 1 of 2 here]
> 5 | O=C(c1nnc(-c2cc[nH]n2)o1)N1CCc2[nH]cnc2C1c1cc2ccccn2n1 (stereo not shown)
> 5 | Cc1nc(-c2ccccn2)oc1C(=O)N1CCc2[nH]cnc2C1c1cc2ccccn2n1 (stereo not shown)
> 5 | Fc1cccnc1-c1nnc(N2CCc3[nH]cnc3C2c2cc3c(C4CC4)cccn3n2)o1 (stereo not shown) [listing 1 of 2 here]
> 5 | Fc1ncccc1-c1nnc(N2CCc3[nH]cnc3C2c2cc3c(C4CC4)cccn3n2)o1 (stereo not shown) [listing 1 of 2 here]
1 to 5 | Cc1c(C2c3nc[nH]c3CCN2C(=O)c2nnc(-c3ccn(C)n3)o2)nn2ccccc12 (stereo not shown) [listing 2 of 2 here]
1 to 5 | Cc1ccn2nc(C3c4nc[nH]c4CCN3C(=O)c3nnc(-c4cnn(C)c4)o3)cc2c1 (stereo not shown)
1 to 5 | CC(F)(F)c1nnc(N2CCc3[nH]cnc3C2c2cc3cccc(C(F)(F)F)n3n2)o1 (stereo not shown)
> 5 | CC(C)(F)c1nnc(N2CCc3[nH]cnc3C2c2cc3ccccn3n2)o1 (stereo not shown)
1 to 5 | CC1(c2nnc(N3CCc4[nH]cnc4C3c3cc4c(C(F)F)cccn4n3)o2)CC1 (stereo not shown)
> 5 | CC(C)c1cccn2nc(C3c4nc[nH]c4CCN3c3cnccn3)cc12 (stereo not shown)
> 5 | CC(C)(F)c1nnc(N2CCc3[nH]cnc3C2c2cc3c(Cl)cccn3n2)o1 (stereo not shown)
1 to 5 | COc1cccn2nc(C3c4nc[nH]c4CCN3C(=O)c3nnc(-c4cnn(C)c4)o3)cc12 (stereo not shown)
> 5 | COc1cccn2nc(C3c4nc[nH]c4CCN3C(=O)c3oc(C(C)(C)O)nc3C(F)F)cc12 (stereo not shown)
1 to 5 | Clc1cccn2nc(C3c4nc[nH]c4CCN3c3nnc(-c4ncccn4)o3)cc12 (stereo not shown)
1 to 5 | Cc1cccn2nc(C3c4nc[nH]c4CCN3C(=O)c3cnc(C(C)(C)O)o3)cc12 (stereo not shown)
1 to 5 | Clc1cccc2cc(C3c4nc[nH]c4CCN3c3nnc(-c4cnccn4)o3)nn12 (stereo not shown)
1 to 5 | O=C(c1ccnn1-c1ccccn1)N1CCc2[nH]cnc2C1c1cc2ccccn2n1 (stereo not shown)
> 5 | CC(C)c1nnc(N2CCc3[nH]cnc3C2c2cc3c(C(C)C)cccn3n2)o1 (stereo not shown)
1 to 5 | Fc1ncccc1-c1nnc(N2CCc3[nH]cnc3C2c2cc3c(C(F)(F)F)cccn3n2)o1 (stereo not shown)
1 to 5 | Fc1ncccc1-c1nnc(N2CCc3[nH]cnc3C2c2cc3c(C(F)F)cccn3n2)o1 (stereo not shown) [listing 2 of 2 here]
1 to 5 | Cc1cccn2nc(C3c4nc[nH]c4CCN3c3nnc(-c4cccnc4)o3)cc12 (stereo not shown)
> 5 | O=C(c1cn[nH]c1)N1CCc2[nH]cnc2C1c1cc2ccccn2n1 (stereo not shown)
1 to 5 | COc1cccn2nc(C3c4nc[nH]c4CCN3C(=O)c3ocnc3C(F)F)cc12 (stereo not shown)
1 to 5 | Cc1cccn2nc(C3c4nc[nH]c4CCN3C(=O)c3ocnc3C(F)F)cc12 (stereo not shown)
1 to 5 | NC(=O)c1ncoc1C(=O)N1CCc2[nH]cnc2C1c1cc2ccccn2n1 (stereo not shown)
1 to 5 | O=C(c1cnn(CC(F)(F)F)c1Cl)N1CCc2[nH]cnc2C1c1cc2ccccn2n1 (stereo not shown)
1 to 5 | Fc1ccc(-c2nnc(N3CCc4[nH]cnc4C3c3cc4ccccn4n3)o2)nc1 (stereo not shown)
1 to 5 | Cc1nc(C(C)O)oc1C(=O)N1CCc2[nH]cnc2C1c1cc2ccccn2n1 (stereo not shown)
1 to 5 | Cc1cccn2nc(C3c4nc[nH]c4CCN3C(=O)c3oc(C(C)O)nc3C(F)F)cc12 (stereo not shown)
